In one assay the test system is P. vulgaris 50. Nature of the assay: Synergistic activity with other β-lactam antibiotics (MIC). Format: cell-based. The text has this: (§1) (c) Synergistic activity with other β-lactam antibiotics
In another assay the test system is S. marcescens 39. The assay is described as above. Format: cell-based.
From the text: as §1

A further assay has as its system Enterobactor cloacae 233. Nature of the assay: Antibacterial spectrum (MIC). To be noted: inoculum one loopful of 10^6 cfu/ml. Format: cell-based. The text has this: (§2) (a) Antibacterial spectrum | Inoculum size = one loopful of 10^6 cfu/ml
Assay [1] deals with Escherichia coli NIHJ JC-2. Nature of the assay: Antibacterial spectrum (MIC). Format: cell-based. The note with it: inoculum one loopful of 10^6 cfu/ml.
From the text: as §2

For assay [2], the system named is Klebsiella pneumoniae SRL-1. Put plainly: Antibacterial spectrum (MIC). In kind it is cell-based. The note with it: inoculum one loopful of 10^6 cfu/ml.
From the text: as §2

In the next assay the test system is Klebsiella sp. 363 (R). Nature of the assay: Antibacterial spectrum (MIC). Format: cell-based. To be noted: inoculum one loopful of 10^6 cfu/ml.
From the text: as §2

The test system of a further assay is Proteus mirabilis PR-4. Nature of the assay: Antibacterial spectrum (MIC). Format: cell-based. To be noted: inoculum one loopful of 10^6 cfu/ml.
From the text: as §2

Assay [3] deals with Pseudomonas aeruginosa ATCC 25619. Put plainly: Antibacterial spectrum (MIC). To be noted: inoculum one loopful of 10^6 cfu/ml. Format: cell-based.
From the text: as §2

Assay [4] deals with Serratia marcescens ATCC 13880. Nature of the assay: Antibacterial spectrum (MIC). In kind it is cell-based. The note with it: inoculum one loopful of 10^6 cfu/ml.
From the text: as §2

For assay [5], the system named is Staphylococcus aureus 209P JC-1. Nature of the assay: Antibacterial spectrum (MIC). In kind it is cell-based. The note with it: inoculum one loopful of 10^6 cfu/ml.
From the text: as §2

The test system of assay [6] is Streptococcus pneumoniae I. Nature of the assay: Antibacterial spectrum (MIC). Format: cell-based. The note with it: inoculum one loopful of 10^6 cfu/ml.
From the text: as §2

Assay [7] deals with lactamase of cephalosporinase type (Enterobactor cloacae 92) (Enterobacter cloacae, UniProt P05364). Put plainly: β-Lactamase inhibitory activity. Format: biochemical. The note with it: β-lactamase producing bacteria Enterobactor cloacae 92, cephalosporinase type. The text has this: (§3) (b) β-Lactamase inhibitory activity
lactamase of cephalosporinase type (Enterobactor cloacae 92), sequence (P05364 21-381): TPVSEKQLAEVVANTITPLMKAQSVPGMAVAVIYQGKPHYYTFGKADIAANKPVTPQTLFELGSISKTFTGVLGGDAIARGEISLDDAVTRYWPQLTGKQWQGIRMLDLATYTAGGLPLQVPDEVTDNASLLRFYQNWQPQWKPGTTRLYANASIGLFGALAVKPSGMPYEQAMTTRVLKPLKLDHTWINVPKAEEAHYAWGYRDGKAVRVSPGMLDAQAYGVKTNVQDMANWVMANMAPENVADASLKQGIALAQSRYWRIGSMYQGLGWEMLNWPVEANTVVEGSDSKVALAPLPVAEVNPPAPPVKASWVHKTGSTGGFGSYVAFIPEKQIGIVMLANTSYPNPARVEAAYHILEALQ
*produces lactamase of cephalosporinase type

For assay [8], the system named is lactamase of penicillinase type (Klebsiella sp. 363). Put plainly: β-Lactamase inhibitory activity. The note with it: β-lactamase producing bacteria Klebsiella sp. 363, penicillinase type. In kind it is biochemical.
From the text: as §3
**produces lactamase of penicillinase type

A further assay deals with S. aureus 2132. Put plainly: Synergistic activity with other β-lactam antibiotics (MIC). Format: cell-based.

The text below walks through data of US4292241A, “Antibiotic PA-31088-IV and production thereof” (Shionogi & Co., Ltd., priority 1979, dated 1981).

In the case of `CC1(C)S[C@@H]2[C@H](NC(=O)[C@H](N)c3ccccc3)C(=O)N2[C@H]1C(=O)O` [Ampicillin, ampicillin], the “MIC of Ampicillin” value is greater than 200 mg/L with P. vulgaris 50 (PA-31088-IV 0 μg/ml); 6.3 mg/L in the assay on P. vulgaris 50 (with PA-31088-IV 2.5 μg/ml); 1.6 mg/L in the assay on P. vulgaris 50 (with PA-31088-IV 10 μg/ml); greater than 200 mg/L in the assay with S. marcescens 39 (PA-31088-IV 0 μg/ml); 3.1 mg/L with S. marcescens 39 (with PA-31088-IV 2.5 μg/ml); 0.1 mg/L in the assay with S. marcescens 39 (with PA-31088-IV 10 μg/ml).
With `CC(=O)NC=CS(=O)(=O)C1=C(C(=O)O)N2C(=O)C(=C(C)CO)C2C1` (centres unmarked) [PA-31088-IV, 3-[(2-acetamidoethylene)sulfonyl]-6-(2-hydroxy-1-methylethylidene)-7-oxo-1-azabicyclo[3.2.0]hept-2-ene-2-carboxylic acid], the “Minimum Inhibitory Concentration” value in the assay on Enterobactor cloacae 233 came out at 3.13 µg/mL; in [1], 3.13 µg/mL; in [2], 1.56 µg/mL; with Klebsiella sp. 363 (R) it was 3.13 µg/mL; with Proteus mirabilis PR-4 it was 6.25 µg/mL; in [3] it was 50 µg/mL. In addition, the “Minimum Inhibitory Concentration” value is 12.5 µg/mL in [4], 3.13 µg/mL in [5] and 0.39 µg/mL in [6]. Also, the “Minimum Inhibitory Concentration (β-lactamase inhibitory activity)” value in assay [7] came out at 0.98 µg/mL; in assay [8], 0.06 µg/mL. The “MIC of PA-31088-IV” value in the assay with S. aureus 2132 (PA-31088-IV alone), in the assay on P. vulgaris 50 (PA-31088-IV alone) and in the assay with S. marcescens 39 (PA-31088-IV alone) was greater than 10 mg/L in each case.
With `Cc1nnc(SCC2=C(C(=O)O)N3C(=O)[C@@H](NC(=O)Cn4cnnn4)[C@H]3SC2)s1` [Cefazolin, cefazolin], the “MIC of Cefazolin” value in the assay with S. aureus 2132 (PA-31088-IV 0 μg/ml) was 6.3 mg/L; in the assay on S. aureus 2132 (with PA-31088-IV 2.5 μg/ml), 0.8 mg/L; with S. aureus 2132 (with PA-31088-IV 10 μg/ml), 0.4 mg/L; in the assay on P. vulgaris 50 (PA-31088-IV 0 μg/ml), greater than 200 mg/L; in the assay with P. vulgaris 50 (with PA-31088-IV 2.5 μg/ml) it was 6.3 mg/L; with P. vulgaris 50 (with PA-31088-IV 10 μg/ml), 3.1 mg/L. Further, the “MIC of Cefazolin” value is greater than 200 mg/L in the assay with S. marcescens 39 (PA-31088-IV 0 μg/ml), 6.3 mg/L in the assay with S. marcescens 39 (with PA-31088-IV 2.5 μg/ml) and 0.4 mg/L in the assay on S. marcescens 39 (with PA-31088-IV 10 μg/ml).
